In brackets after ≈: the same amount, converted by molar mass.
Key:
Type in all cases: functional
Blautia luti = test: Antimicrobial activity against Ruminococcus luti by Wadsworth agar dilution method
Bacteroides fragilis = test: Antimicrobial activity against Bacteroides fragilis by Wadsworth agar dilution method
Peptoniphilus harei = test: Antimicrobial activity against Peptoniphilus harei by Wadsworth agar dilution method
[Clostridium] innocuum = Antimicrobial activity against Clostridium innocuum by Wadsworth agar dilution method
Clostridium perfringens = test: Antimicrobial activity against Clostridium perfringens by Wadsworth agar dilution method
Schaalia meyeri = test: Antimicrobial activity against Actinomyces meyeri by Wadsworth agar dilution method
Clostridium subterminale = test: Antimicrobial activity against Clostridium subterminale by Wadsworth agar dilution method
Atopobium minutum = test: Antimicrobial activity against Atopobium minutum by Wadsworth agar dilution method
Ruminococcus gnavus = test: Antimicrobial activity against Ruminococcus gnavus by Wadsworth agar dilution method; conditions: Mediterraneibacter gnavus
Eubacterium limosum = test: Antimicrobial activity against Eubacterium limosum by Wadsworth agar dilution method
[1] = system: Lacticaseibacillus rhamnosus; test: Antimicrobial activity against Lactobacillus rhamnosus by Wadsworth agar dilution method
[2] = Antimicrobial activity against Bifidobacterium pseudocatenulatum by Wadsworth agar dilution method
[3] = system: Lactiplantibacillus plantarum; test: Antimicrobial activity against Lactobacillus plantarum by Wadsworth agar dilution method
[4] = system: Desulfovibrio desulfuricans; test: Antimicrobial activity against Desulfovibrio desulfuricans by Wadsworth agar dilution method
Parvimonas micra = test: Antimicrobial activity against Peptostreptococcus micros by Wadsworth agar dilution method
[5] = system: Limosilactobacillus fermentum; test: Antimicrobial activity against Lactobacillus fermentum by Wadsworth agar dilution method
Clostridium sp. = test: Antimicrobial activity against Clostridium sp. by Wadsworth agar dilution method
Clostridium scindens = test: Antimicrobial activity against Clostridium scindens by Wadsworth agar dilution method
Fusobacterium mortiferum = test: Antimicrobial activity against Clostridium rectum by Wadsworth agar dilution method
[6] = system: Peptostreptococcus anaerobius; test: Antimicrobial activity against Peptostreptococcus anaerobius by Wadsworth agar dilution method
Bacteroides uniformis = test: Antimicrobial activity against Bacteroides uniformis by Wadsworth agar dilution method
[7] = system: Limosilactobacillus reuteri; test: Antimicrobial activity against Lactobacillus reuteri by Wadsworth agar dilution method
[8] = system: Ruminococcus flavefaciens; test: Antimicrobial activity against Ruminococcus flavefaciens by Wadsworth agar dilution method
Clostridium sporogenes = test: Antimicrobial activity against Clostridium sporogenes by Wadsworth agar dilution method
Actinomyces viscosus = test: Antimicrobial activity against Actinomyces viscosus by Wadsworth agar dilution method
Collinsella aerofaciens = test: Antimicrobial activity against Colinsella aerofaciens by Wadsworth agar dilution method
Thomasclavelia ramosa = test: Antimicrobial activity against Clostridium ramosum by Wadsworth agar dilution method
Prevotella corporis = test: Antimicrobial activity against Prevotella corporis by Wadsworth agar dilution method
[9] = system: Parabacteroides goldsteinii; test: Antimicrobial activity against Parabacteroides goldsteinii by Wadsworth agar dilution method
Clostridium beijerinckii = test: Antimicrobial activity against Clostridium beijerinckii by Wadsworth agar dilution method
Hoylesella loescheii = test: Antimicrobial activity against Prevotella loescheii by Wadsworth agar dilution method
[10] = system: Porphyromonas asaccharolytica; test: Antimicrobial activity against Porphyromonas asaccharolyticus by Wadsworth agar dilution method
Ruminococcus lactaris = test: Antimicrobial activity against Ruminococcus lactaris by Wadsworth agar dilution method
[11] = system: Prevotella melaninogenica; test: Antimicrobial activity against Prevotella melaninogenica by Wadsworth agar dilution method
Eubacterium rectale = test: Antimicrobial activity against Eubacterium rectale by Wadsworth agar dilution method; conditions: Agathobacter rectalis
Fusobacterium varium = test: Antimicrobial activity against Fusobacterium varium by Wadsworth agar dilution method
[12] = system: Lactobacillus catenaformis; test: Antimicrobial activity against Lactobacillus catenaformis by Wadsworth agar dilution method; conditions: Eggerthia catenaformis
Clostridium disporicum = test: Antimicrobial activity against Clostridium disporicum by Wadsworth agar dilution method
Blautia producta = test: Antimicrobial activity against Ruminococcus productus by Wadsworth agar dilution method
Bacteroides ovatus = test: Antimicrobial activity against Bacteroides ovatus by Wadsworth agar dilution method
Clostridium fallax = test: Antimicrobial activity against Clostridium fallax by Wadsworth agar dilution method
Bilophila wadsworthia = test: Antimicrobial activity against Bilophila wadsworthia by Wadsworth agar dilution method in presence of 1% pyruvic acid
Eubacterium cylindroides = test: Antimicrobial activity against Eubacterium cylindroides by Wadsworth agar dilution method; conditions: Faecalitalea cylindroides
[13] = system: Pseudoramibacter alactolyticus; test: Antimicrobial activity against Eubacterium alactolyticum by Wadsworth agar dilution method
Bacteroides stercoris = test: Antimicrobial activity against Bacteroides stercoris by Wadsworth agar dilution method
Bifidobacterium longum = test: Antimicrobial activity against Bifidobacterium longum by Wadsworth agar dilution method
[14] = system: Clostridium paraputrificum; test: Antimicrobial activity against Clostridium paraputrificum by Wadsworth agar dilution method

Structure (SMILES): CO[C@H]1/C=C/O[C@@]2(C)Oc3c(C)c(O)c4c(O)c(c5c(nc6cc(C)ccn65)c4c3C2=O)NC(=O)/C(C)=C\C=C\[C@H](C)[C@H](O)[C@@H](C)[C@@H](O)[C@@H](C)[C@H](OC(C)=O)[C@@H]1C [RIFAXIMIN]
- MIC (Blautia luti): 0.25 mg/L (≈ 0.318 µM)
- MIC50 (Blautia luti): 0.25 mg/L (≈ 0.318 µM)
- MIC90 (Blautia luti): 4 mg/L (≈ 5.09 µM)
- MIC (Bacteroides fragilis): 0.25 mg/L (≈ 0.318 µM)
- MIC50 (Bacteroides fragilis): 0.25 mg/L (≈ 0.318 µM)
- MIC90 (Bacteroides fragilis): > 1020 mg/L
- MIC (Peptoniphilus harei): 0.25 mg/L (≈ 0.318 µM)
- MIC50 (Peptoniphilus harei): 0.25 mg/L (≈ 0.318 µM)
- MIC90 (Peptoniphilus harei): 4 mg/L (≈ 5.09 µM)
- MIC50 ([Clostridium] innocuum): > 1020 mg/L
- MIC90 ([Clostridium] innocuum): > 1020 mg/L
- MIC50 (Clostridium perfringens): 0.25 mg/L (≈ 0.318 µM)
- MIC90 (Clostridium perfringens): 0.25 mg/L (≈ 0.318 µM)
- MIC50 (Schaalia meyeri): 0.5 mg/L (≈ 0.636 µM)
- MIC90 (Schaalia meyeri): > 1020 mg/L
- MIC (Clostridium subterminale): 0.25 mg/L (≈ 0.318 µM)
- MIC50 (Clostridium subterminale): 0.25 mg/L (≈ 0.318 µM)
- MIC90 (Clostridium subterminale): > 1020 mg/L
- MIC50 (Atopobium minutum): 0.5 mg/L (≈ 0.636 µM)
- MIC90 (Atopobium minutum): > 1020 mg/L
- MIC (Ruminococcus gnavus): 0.25 mg/L (≈ 0.318 µM)
- MIC50 (Ruminococcus gnavus): 0.25 mg/L (≈ 0.318 µM)
- MIC90 (Ruminococcus gnavus): 4 mg/L (≈ 5.09 µM)
- MIC50 (Eubacterium limosum): 0.5 mg/L (≈ 0.636 µM)
- MIC90 (Eubacterium limosum): > 1020 mg/L
- MIC50 [1]: 0.5 mg/L (≈ 0.636 µM)
- MIC90 [1]: > 1020 mg/L
- MIC50 [2]: 0.5 mg/L (≈ 0.636 µM)
- MIC90 [2]: > 1020 mg/L
- MIC50 [3]: 0.5 mg/L (≈ 0.636 µM)
- MIC90 [3]: > 1020 mg/L
- MIC [4]: 32 mg/L (≈ 40.7 µM)
- MIC50 [4]: 32 mg/L (≈ 40.7 µM)
- MIC90 [4]: 64 mg/L (≈ 81.4 µM)
- MIC (Parvimonas micra): 0.25 mg/L (≈ 0.318 µM)
- MIC50 (Parvimonas micra): 0.25 mg/L (≈ 0.318 µM)
- MIC90 (Parvimonas micra): 4 mg/L (≈ 5.09 µM)
- MIC50 [5]: 0.5 mg/L (≈ 0.636 µM)
- MIC90 [5]: > 1020 mg/L
- MIC (Clostridium sp.): 0.25 mg/L (≈ 0.318 µM)
- MIC50 (Clostridium sp.): 0.25 mg/L (≈ 0.318 µM)
- MIC90 (Clostridium sp.): > 1020 mg/L
- MIC (Clostridium scindens): 0.25 mg/L (≈ 0.318 µM)
- MIC50 (Clostridium scindens): 0.25 mg/L (≈ 0.318 µM)
- MIC90 (Clostridium scindens): > 1020 mg/L
- MIC (Fusobacterium mortiferum): 0.25 mg/L (≈ 0.318 µM)
- MIC50 (Fusobacterium mortiferum): 0.25 mg/L (≈ 0.318 µM)
- MIC90 (Fusobacterium mortiferum): > 1020 mg/L
- MIC [6]: 0.25 mg/L (≈ 0.318 µM)
- MIC50 [6]: 0.25 mg/L (≈ 0.318 µM)
- MIC90 [6]: 4 mg/L (≈ 5.09 µM)
- MIC (Bacteroides uniformis): 0.25 mg/L (≈ 0.318 µM)
- MIC50 (Bacteroides uniformis): 0.25 mg/L (≈ 0.318 µM)
- MIC90 (Bacteroides uniformis): 0.5 mg/L (≈ 0.636 µM)
- MIC50 [7]: 0.5 mg/L (≈ 0.636 µM)
- MIC90 [7]: > 1020 mg/L
- MIC [8]: 0.25 mg/L (≈ 0.318 µM)
- MIC50 [8]: 0.25 mg/L (≈ 0.318 µM)
- MIC90 [8]: 4 mg/L (≈ 5.09 µM)
- MIC (Clostridium sporogenes): 0.25 mg/L (≈ 0.318 µM)
- MIC50 (Clostridium sporogenes): 0.25 mg/L (≈ 0.318 µM)
- MIC90 (Clostridium sporogenes): > 1020 mg/L
- MIC50 (Actinomyces viscosus): 0.5 mg/L (≈ 0.636 µM)
- MIC90 (Actinomyces viscosus): > 1020 mg/L
- MIC50 (Collinsella aerofaciens): 0.5 mg/L (≈ 0.636 µM)
- MIC90 (Collinsella aerofaciens): > 1020 mg/L
- MIC (Thomasclavelia ramosa): 0.25 mg/L (≈ 0.318 µM)
- MIC50 (Thomasclavelia ramosa): 0.25 mg/L (≈ 0.318 µM)
- MIC90 (Thomasclavelia ramosa): > 1020 mg/L
- MIC (Prevotella corporis): 0.25 mg/L (≈ 0.318 µM)
- MIC50 (Prevotella corporis): 0.25 mg/L (≈ 0.318 µM)
- MIC90 (Prevotella corporis): 0.5 mg/L (≈ 0.636 µM)
- MIC [9]: 0.25 mg/L (≈ 0.318 µM)
- MIC50 [9]: 0.25 mg/L (≈ 0.318 µM)
- MIC90 [9]: 1 mg/L (≈ 1.27 µM)
- MIC (Clostridium beijerinckii): 0.25 mg/L (≈ 0.318 µM)
- MIC50 (Clostridium beijerinckii): 0.25 mg/L (≈ 0.318 µM)
- MIC90 (Clostridium beijerinckii): > 1020 mg/L
- MIC (Hoylesella loescheii): 0.25 mg/L (≈ 0.318 µM)
- MIC50 (Hoylesella loescheii): 0.25 mg/L (≈ 0.318 µM)
- MIC90 (Hoylesella loescheii): 0.5 mg/L (≈ 0.636 µM)
- MIC [10]: 0.25 mg/L (≈ 0.318 µM)
- MIC50 [10]: 0.25 mg/L (≈ 0.318 µM)
- MIC90 [10]: 0.5 mg/L (≈ 0.636 µM)
- MIC (Ruminococcus lactaris): 0.25 mg/L (≈ 0.318 µM)
- MIC50 (Ruminococcus lactaris): 0.25 mg/L (≈ 0.318 µM)
- MIC90 (Ruminococcus lactaris): 4 mg/L (≈ 5.09 µM)
- MIC [11]: 0.25 mg/L (≈ 0.318 µM)
- MIC50 [11]: 0.25 mg/L (≈ 0.318 µM)
- MIC90 [11]: 0.5 mg/L (≈ 0.636 µM)
- MIC50 (Eubacterium rectale): 0.5 mg/L (≈ 0.636 µM)
- MIC90 (Eubacterium rectale): > 1020 mg/L
- MIC50 (Fusobacterium varium): 16 mg/L (≈ 20.4 µM)
- MIC90 (Fusobacterium varium): > 1020 mg/L
- MIC50 [12]: 0.5 mg/L (≈ 0.636 µM)
- MIC90 [12]: > 1020 mg/L
- MIC (Clostridium disporicum): 0.25 mg/L (≈ 0.318 µM)
- MIC50 (Clostridium disporicum): 0.25 mg/L (≈ 0.318 µM)
- MIC90 (Clostridium disporicum): > 1020 mg/L
- MIC (Blautia producta): 0.25 mg/L (≈ 0.318 µM)
- MIC50 (Blautia producta): 0.25 mg/L (≈ 0.318 µM)
- MIC90 (Blautia producta): 4 mg/L (≈ 5.09 µM)
- MIC50 (Bacteroides ovatus): 1 mg/L (≈ 1.27 µM)
- MIC90 (Bacteroides ovatus): 1 mg/L (≈ 1.27 µM)
- MIC (Clostridium fallax): 0.25 mg/L (≈ 0.318 µM)
- MIC50 (Clostridium fallax): 0.25 mg/L (≈ 0.318 µM)
- MIC90 (Clostridium fallax): > 1020 mg/L
- MIC (Bilophila wadsworthia): 0.25 mg/L
- MIC50 (Bilophila wadsworthia): 0.25 mg/L
- MIC90 (Bilophila wadsworthia): 0.5 mg/L
- MIC50 (Eubacterium cylindroides): 0.5 mg/L (≈ 0.636 µM)
- MIC90 (Eubacterium cylindroides): > 1020 mg/L
- MIC50 [13]: 0.5 mg/L (≈ 0.636 µM)
- MIC90 [13]: > 1020 mg/L
- MIC (Bacteroides stercoris): 0.25 mg/L (≈ 0.318 µM)
- MIC50 (Bacteroides stercoris): 0.25 mg/L (≈ 0.318 µM)
- MIC90 (Bacteroides stercoris): 0.5 mg/L (≈ 0.636 µM)
- MIC50 (Bifidobacterium longum): 0.5 mg/L (≈ 0.636 µM)
- MIC90 (Bifidobacterium longum): > 1020 mg/L
- MIC [14]: 0.25 mg/L (≈ 0.318 µM)
- MIC50 [14]: 0.25 mg/L (≈ 0.318 µM)
- MIC90 [14]: > 1020 mg/L
